Reference: article PMC2246472, “Bombesin and bombesin antagonists: studies in Swiss 3T3 cells and human small cell lung cancer” (British Journal of Cancer, 1988)
Where two headings read alike, the source gives them in different places.

Assays:
[1] = target: T1, bombesin/GRP receptor (Mus musculus, UniProt P21729); settings: Swiss 3T3 cells; ref Zachary & Rozengurt, 1985a; cited from earlier work
T1 construct: endogenous in cells; host or cells: Swiss 3T3 murine fibroblasts (intact, quiescent/confluent)
T1 sequence (P21729 whole entry): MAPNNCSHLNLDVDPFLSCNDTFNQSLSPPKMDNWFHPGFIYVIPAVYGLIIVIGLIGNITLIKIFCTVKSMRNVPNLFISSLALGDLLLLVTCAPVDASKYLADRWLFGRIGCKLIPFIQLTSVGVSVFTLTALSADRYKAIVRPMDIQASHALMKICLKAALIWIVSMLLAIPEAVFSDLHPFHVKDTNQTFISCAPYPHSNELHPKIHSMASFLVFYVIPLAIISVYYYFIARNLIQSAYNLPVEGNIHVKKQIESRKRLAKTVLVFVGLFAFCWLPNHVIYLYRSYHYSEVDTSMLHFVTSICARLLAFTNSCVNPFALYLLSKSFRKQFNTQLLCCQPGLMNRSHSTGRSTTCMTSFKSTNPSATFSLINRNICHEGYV
Excerpt: Br. J. Cancer (1988), 57, 579-586 ? The Macmillan Press Ltd., 1988 Bombesin and bombesin antagonists: Studies in Swiss 3T3 cells and human small cell lung cancer* P.J. Woll & E. Rozengurt Imperial Cancer Research Fund, PO Box 123, Lincoln's Inn Fields, London WC2A 3PX, UK.

[2] = tested on: Swiss 3T3 cells; parameters: method as in 2 sources, one per row (each row's own in cited_ref): ref Rozengurt & Sinnett-Smith, 1983 ||| ref Zachary & Rozengurt, 1985a; settings: serum-free medium, cited from earlier work
[3] = tested on: pancreatic acinar cells; settings: ref Jensen et al., 1984; cited from earlier work
[4] = tested on: H69 SCLC cell line; assay: Growth of H69 SCLC cell line in serum-free HITES medium (Coulter counter); type: cell-based, human; settings: peptide A at 150 pM (so in the source), HITES medium + 0.25% bovine serum albumin, inoculum 5 x 10^4 cells, mean of 3; restored by washing; Figure 3 left
[5] = tested on: vasopressin-stimulated DNA synthesis in Swiss 3T3 cells; settings: ref Zachary & Rozengurt, 1986, Corps et al., 1985; cited from earlier work
Excerpt: (§1) Br. J. Cancer (1988), 57, 579-586 ? The Macmillan Press Ltd., 1988 Bombesin and bombesin antagonists: Studies in Swiss 3T3 cells and human small cell lung cancer* P.J. Woll & E. Rozengurt Imperial Cancer Research Fund, PO Box 123, Lincoln's Inn Fields, London WC2A 3PX, UK. Summary Bombesins are potent growth factors for murine Swiss 3T3 cells. Using these cells in chemically defined conditions we have been able to characterise the bombesin receptor and the early signals preceding DNA synthesis. We describe two substance P analogues [DArg1, DPro2, DTrp7 9, Leu1 ] substance P and [DArg1, DPhe5, ...

[6] = tested on: Swiss 3T3 cells; settings: ref Zachary & Rozengurt, 1985a; cited from earlier work
Excerpt: as §1

[7] = target: T2, Mr 75,000-85,000 protein component of the bombesin/GRP receptor (Mus musculus, UniProt P21729); settings: Swiss 3T3 cells; ref Zachary & Rozengurt, 1987a; cited from earlier work
T2 construct: endogenous in cells; host or cells: Swiss 3T3 murine fibroblasts (intact, quiescent/confluent)
T2 sequence (P21729 whole entry): as above
Excerpt: as §1

[8] = tested on: protein kinase C (80K phosphorylation); settings: Swiss 3T3 cells; ref Zachary et al., 1986; cited from earlier work
Excerpt: as §1

[9] = tested on: GRP-stimulated mitogenesis in Swiss 3T3 cells; settings: ref Zachary & Rozengurt, 1985a; cited from earlier work
Excerpt: as §1

[10] = tested on: EGF receptor; settings: Swiss 3T3 cells; ref Zachary et al., 1986; cited from earlier work
Excerpt: as §1

[11] = tested on: Ca2+ mobilization; settings: Swiss 3T3 cells; ref Mendoza et al., 1986; cited from earlier work
Excerpt: as §1

[12] = tested on: Na+/K+ pump; settings: Swiss 3T3 cells; ref Mendoza et al., 1986; cited from earlier work
Excerpt: as §1

[13] = tested on: c-fos and c-myc expression; settings: Swiss 3T3 cells; ref Rozengurt & Sinnett-Smith, 1987; cited from earlier work
Excerpt: as §1

In the case of “vasoactive intestinal peptide [VIP, reference compound]”, the “inhibition of [125I]GRP binding by other mitogens and neuropeptides” value (“inhibition of [125I]GRP binding” for short) [1] is listed as “not inhibited”.
For “pGlu Gin Arg Leu Gly Asn Gin Trp Ala Val Gly His Leu Met NH2 [bombesin, tetradecapeptide first isolated from amphibian skin]”, the EC50 ([2]; absence of other growth-promoting agents, ref Rozengurt & Sinnett-Smith, 1983, read-out: bombesin concentration giving half-maximal effect on DNA synthesis) is given as 1 nM and the EC50 ([2]; in the presence of insulin, ref Zachary & Rozengurt, 1985a, read-out: bombesin concentration required to produce a half-maximal response (DNA synthesis) with insulin) is given as 0.3 nM.
In the case of PDGF, the “inhibition of [125I]GRP binding” value [1] is listed as “not inhibited”.
For “DArg Dpro Lys Pro Gln Gln DTrp Phe DTrp Leu Leu NH2 [peptide A, [DArg1, DPro2, DTrp7,9, Leu11] substance P]”, the “effect on secretory effects of bombesin in pancreatic acinar cells” value [3] is listed as “block the secretory effects of bombesin”, the “effect on growth of H69 cells” value [4] is listed as “suppressed” and the “effect on stimulation of DNA synthesis by vasopressin (Table III)” value [5] is listed as “reversibly blocks”. For the same compound, the “effect on DNA synthesis stimulated by PDGF, EGF, phorbol esters and c-AMP-increasing agents (Table III)” value [6] was “is not affected”, the “effect on cross-linking of [125I]GRP to the Mr 75,000-85,000 glycoprotein (Table III)” value [7] was “reversibly blocks” and the “effect on 80K phosphorylation (Table III)” value [8] was “reversibly blocks”. The “effect on stimulation of DNA synthesis by bombesin-like peptides (Table III)” value [9] was “reversibly blocks”, the “effect on EGF transmodulation (Table III)” value [10] was “reversibly blocks” and the “effect on Ca2+ mobilization (Table III)” value [11] was “reversibly blocks”. The “effect on activation of Na+/K+ pump (Table III)” value [12] was “reversibly blocks”, the “effect on increase in c-fos and c-myc expression (Table III)” value [13] was “reversibly blocks” and the “effect on [125I]GRP binding (Table III)” value [1] was “reversibly blocks”.
For vasopressin [reference compound], the “inhibition of [125I]GRP binding” value [1] is given as “not inhibited”.
In the case of insulin, the “inhibition of [125I]GRP binding” value [1] is given as “not inhibited”.
For EGF: epidermal growth factor, the “inhibition of [125I]GRP binding” value [1] is given as “not inhibited”.
In the case of “Arg Pro Lys Pro Gln Gln Phe Phe Gly Leu Met NH2 [substance P, tachykinin with minimal structural homology with bombesin, reference compound]”, the “inhibition of [125I]GRP binding” value [1] is listed as “not inhibited”.
For `CCCC(=O)O[C@@H]1[C@@H](C)[C@@]2(O)[C@@H](C=C(CO)C[C@]3(O)C(=O)C(C)=C[C@@H]23)[C@@H]2C(C)(C)[C@]12OC(=O)CCC` [PBt2, phorbol 12,13, dibutyrate, reference compound], the “inhibition of [125I]GRP binding” value [1] is listed as “not inhibited”.
